According to publication PMC12040169 (PLOS Biology, 2025):

Assay: in vitro
Settings: human, hela cells, % viability

Row | SMILES | viability at 28.5 h, 10 µM
1 | Cc1ccc(NC(=O)COC(=O)CCc2c[nH]c(O)n2)cc1 [CBK265562] | 89.9%
2 | O=C(Nc1ccc(OCc2nc3ccccc3s2)cc1)c1cccc(I)c1 [CBK267843] | 119%
3 | Nc1nc(=O)c2cnc3c(F)cccc3c2s1 [CBK291249] | 91.1%
4 | COc1ccccc1CN(C)C(=O)CCc1ccc(S(N)(=O)=O)cc1 [CBK304585] | 86.8%
5 | CCn1c2ccccc2c2cc(NC(=O)C(C)Sc3n[nH]c(=O)n3C3CC3)ccc21 (centres unmarked) [CBK296636] | 107%
6 | O=C(CN1CCN(Cc2ccc3c(c2)OCO3)CC1)Nc1ccc(Cl)cc1C(=O)c1ccccc1 [CBK264241] | 103%
7 | COc1ccc2nc3cc(Cl)ccc3c(NCCO)c2c1 [CBK011939] | 43.8%
8 | c1ccc(N2CCOCC2)c(COc2cncc(N3CCNCC3)n2)c1 [CBK172351G] | 105%
9 | CCn1ncc(CN2C3CCC2CC(O)(c2cccc(F)c2)C3)c1C (centres unmarked) [CBK282754] | 91.6%
10 | Cn1cc(C2CCCCCN2C(=O)c2cc(C3CC3)on2)cn1 (centres unmarked) [CBK285301] | 104%
11 | CC1(OCCCN2CCCCC2)SC(NC2CC3CCC2C3)=NC1=O (centres unmarked) [CBK115611] | 87.2%
12 | CCC1CCc2c(sc(NC(=O)c3cc(-c4ccc(Cl)s4)nc4ccccc34)c2C(N)=O)C1 (centres unmarked) [CBK262646] | 88.9%
13 | Cc1cc(C2CCCCCN2S(=O)(=O)c2ccc3[nH]c(=O)[nH]c(=O)c3c2)no1 (centres unmarked) [CBK286404] | 94.2%
14 | Cc1cc(C)cc(N(C(C)C(=O)Nc2ccccc2-c2ccccc2)S(C)(=O)=O)c1 (centres unmarked) [CBK268770] | 101%
15 | O=C(NCc1cccnc1)c1ccccc1-n1cccc1 [CBK149602] | 92.3%
16 | Cc1nc(C(=O)N2CCn3nc(C(O)Cc4ccccc4)cc3C2)cs1 (centres unmarked) [CBK307214] | 98.5%
17 | CC(C)(C)COC(=O)N1CCC(N2CCOc3ccc(-c4ccc(S(C)(=O)=O)cc4)cc3C2)CC1 [CBK169264] | 83%
18 | O=C(COc1ccc2c3c(c(=O)oc2c1)CCC3)Nc1ccc(S(=O)(=O)N2CCOCC2)cc1 [CBK265640] | 82.4%
19 | O=C(CCN1C(=O)c2cccc3cccc(c23)C1=O)Oc1ccc2c(c1)OCO2 [CBK266237] | 106%
20 | CC(=O)Nc1nc2c3ccccc3n(C(C)=O)c2s1 [CBK011360] | 110%
21 | C=CCNc1nccnc1-c1cc(OC)c(OC)c(OC)c1 [CBK036872] | 102%
22 | CN1CCN(C(=O)C[C@@H]2CCNC[C@@H]2Cc2cc(CC3CCCCC3)on2)CC1 [CBK289151] | 84.3%
23 | Nc1ncc2cc(C(F)(F)F)ccc2n1 [CBK100705] | 107%

Row | SMILES | viability at 28.5 h, 10 µM
24 | Cc1cccc(C)c1N1CCN(CCn2c(=S)[nH]c3ccccc3c2=O)CC1 [CBK267998] | 89.9%
25 | Cc1cc(NS(=O)(=O)c2ccc(OCCNS(C)(=O)=O)cc2)no1 [CBK268530] | 102%
26 | N#CCCCN1CCC(Oc2nccnc2OCc2ccc(-c3ccccc3)cc2)CC1 [CBK161566] | 95.4%
27 | O=C(CSc1ncn[nH]1)Nc1ncccn1 [CBK058488] | 105%
28 | Cc1cc2n(n1)[C@@H](C(F)F)C[C@@H](C1CCN(C(=O)C(C)C)CC1)N2 [CBK284725] | 88%
29 | Cc1cc(C)n(-c2nc3cc(Cl)ccc3nc2Nc2ccc3c(c2)OCO3)n1 [CBK268380] | 91.9%
30 | Cc1nn(CCNC(=O)C2CC(=O)N(Cc3ccccn3)C2)c(C)c1Cl (centres unmarked) [CBK307316] | 85.1%
31 | CN(C)CC1CCCN(C(=O)C2C3CCCCC32)C1 (centres unmarked) [CBK282002] | 82.3%
32 | Brc1ccc(NCc2ccccn2)cc1 [CBK026347] | 104%
33 | CCOC(=O)c1c(NC(=O)CN2CCN(c3ccc(F)cc3)CC2)sc2c1CCCC2 [CBK265536] | 88.3%
34 | O=C(C1=C(O)C(=O)N(CCCN2CCOCC2)C1c1ccccn1)c1ccccc1 (centres unmarked) [CBK266604] | 93.4%
35 | COC(=O)c1ccc(Cn2cc(NC(=O)NCCc3cccs3)cn2)o1 [CBK043825] | 82.4%
36 | CCC1=NNC(=O)C(CC(=O)Nc2ccccc2)c2cc(OC)c(OC)cc21 (centres unmarked) [CBK009158] | 92.4%
37 | C/C(=N\NC(=O)C(C)Sc1ncccn1)C(C)(C)C (centres unmarked) [CBK020243] | 104%
38 | O=C(NCc1ccco1)c1cc(S(=O)(=O)N2CCOCC2)ccc1Br [CBK269907] | 90.7%
39 | CC(C)Cc1ccc(-c2cc(NCCc3ccccn3)ncn2)cc1 [CBK091088] | 99.6%
40 | O=C(Nc1cccc(-c2nc3ccccc3s2)c1)c1ccc(Cn2cnnn2)cc1 [CBK285823] | 85.2%
41 | COc1ccc(NC(=O)C2CN(S(=O)(=O)c3ccccc3)CCN2S(=O)(=O)c2ccccc2)cc1 (centres unmarked) [CBK262500] | 98.5%
42 | Cc1cc(C(=O)CSc2nncs2)c(C)n1C(C)c1ccccc1 (centres unmarked) [CBK297934] | 86.8%
43 | O=C(Nc1ccc2c(c1)OCO2)c1cccc(I)c1 [CBK058308] | 85.7%
44 | Cc1cc(N2CCN(C(=O)c3c[nH]c(=O)[nH]3)CC2)nc(C(C)C)n1 [CBK296681] | 111%
45 | CN(Cc1cnn(C)c1)C(=O)c1ccc(Br)cc1O [CBK305742] | 104%
46 | CN1CCN(CC(=O)Nc2sc3c(c2C(=O)Nc2ccccc2)CCCC3)CC1 [CBK268431] | 117%

Row | SMILES | viability at 28.5 h, 10 µM
47 | CC1CCCC(C)N1C(=O)Cn1cnc2c(Cl)cc(Cl)cc2c1=O (centres unmarked) [CBK306222] | 85.7%
48 | O=C(Nc1ccccc1)N[C@H]1CO[C@H]2[C@@H]1OC[C@H]2OC(=O)Nc1ccccc1 [CBK289465] | 89.1%
49 | COc1cc2oc(=O)c(CC(=O)N3CCCC(C(=O)O)C3)c(C)c2cc1Cl (centres unmarked) [CBK286754] | 107%
50 | Nc1cccc(-c2nc(-c3cccs3)cnc2N)c1 [CBK063923] | 94.5%
51 | CCOC(=O)Cn1nc(CC)c(Cc2c(Cl)cccc2Cl)c1C [CBK113222] | 122%
52 | Cc1nc(SCc2cccc(C(=O)O)c2)nc2c1CCCC2 [CBK266997] | 87.3%
53 | COc1ccc(CCC(=O)Nc2cccc(OCCC3CCNCC3)c2)cc1OC [CBK138350] | 95.6%
54 | Cc1ccc2c(c1)OC1(CCN(C(=O)c3c(-c4ccccc4)nc4ccccn34)CC1)CC2=O [CBK167871] | 92.9%
55 | N#Cc1ccc2nc([C@H]3CCN(C(=O)C4CCCCC4)C3)[nH]c2c1 [CBK289380] | 90%
56 | O=C(Cn1nnc2ccccc21)NCCN1CCCC1 [CBK267200] | 106%
57 | CC(=O)Nc1nc(OCC(F)(F)F)cnc1-c1cccc(C(=O)N(C)C)c1 [CBK145401] | 96%
58 | Cc1cnc(CN2CCNC(=O)C2c2ccccc2C(F)(F)F)o1 (centres unmarked) [CBK306431] | 85.4%
59 | CC1(C)C2CCC1(CS(=O)(=O)N1CCC(C(N)=O)CC1)C(=O)C2 (centres unmarked) [CBK269499] | 102%
60 | Clc1ccc(CN2CCC(Oc3cncc(OCC4COc5ccccc5O4)n3)C2)cc1 (centres unmarked) [CBK084364] | 94.7%
61 | Cc1nc2c(C(=O)NCCOCCO)cnn2c(C)c1Cc1ccc(F)c(Cl)c1 [CBK167457] | 96.3%
62 | O=c1cc(N2CCOCC2)cnn1CCCCOc1ccccc1 [CBK307327] | 97.9%
63 | CCn1cncc1CN(Cc1ccc(F)cc1)CC1CCCO1 (centres unmarked) [CBK283036] | 98%
64 | CN(C)CCN(C)c1nc(-c2ccc3c(c2)OCO3)cn2ccnc12 [CBK066381] | 110%
65 | NC(=O)CSc1nnc2ccc3ccccc3n12 [CBK287794] | 110%
66 | O=C(NCc1ccc(Cl)cc1)c1cc(-c2ccc(F)cc2)nc2ccccc12 [CBK294451] | 111%
67 | CCN(CC)C(=O)/C=C/c1ccc(C(C)C)cc1 [CBK149636] | 93.1%
68 | Cc1cc(C)c(S(=O)(=O)NCCN2CCN(S(=O)(=O)c3c(C)cc(C)cc3C)CC2)c(C)c1 [CBK265842] | 96%
69 | COc1ccccc1Oc1ccc([N+](=O)[O-])cc1F [CBK002850] | 90.8%

Row | SMILES | viability at 28.5 h, 10 µM
70 | Cc1cc(NC(=O)C2CCN(C)CC2)c2ccccc2n1 [CBK122730] | 91.1%
71 | CCN(CC)C(=O)C1CCCN(C(=O)NCCc2c[nH]cn2)C1 (centres unmarked) [CBK156124] | 96.9%
72 | COc1ccc(S(=O)(=O)N(C)CC(=O)Nc2ccc(C(N)=O)cc2)cc1C [CBK267278] | 88%
73 | CCn1c(C)nc2cc(NC(=O)c3c4c(nn3C)CCCC4)ccc21 [CBK281831] | 93.8%
74 | O=C(CN1CCCCC1)NCCNc1ccc([N+](=O)[O-])cc1Cl [CBK264922] | 115%
75 | CC(Cc1c[nH]c2ccccc12)NC(=O)CN (centres unmarked) [CBK218213C] | 100%
76 | Cc1cccc(Cn2c(=O)c3cnc(-c4ccncc4)nc3n(C)c2=O)c1 [CBK288593] | 82.8%
77 | COc1ccc(C(C)C)cc1-c1nccnc1NCc1ccc(S(C)(=O)=O)cc1 [CBK036903] | 92.5%
78 | CCOC(=O)c1cc(S(=O)(=O)NC2CCN(C(=O)OCC)CC2)cn1C [CBK304665] | 90.1%
79 | Cc1ccc(C#N)c(NS(=O)(=O)c2cc(C)c(Cl)cc2C)c1 [CBK045250] | 96.6%
80 | O=C(O)c1cccc(Sc2nccc(C(F)(F)F)n2)c1 [CBK115957] | 90.2%
81 | Nc1ncc([C@@H]2O[C@H](CO)[C@H](O)C2O)c(=O)[nH]1 (some centres unmarked) [CBK201205] | 78.1%
82 | Cc1cc([N+](=O)[O-])ccc1/N=C\c1ccc(C(=O)O)cc1 [CBK262058] | 95.4%
83 | CN1CCN(c2ccc(NS(=O)(=O)c3ccc(Cl)cc3)cc2)CC1 [CBK076932] | 97.9%
84 | C(=N\c1ccc(Cc2ccc(/N=C/c3cccnc3)cc2)cc1)/c1cccnc1 [CBK260884] | 95%
85 | Cc1nc(CCNCc2c(C)nn(C)c2N(C)C)cs1 [CBK304828] | 88.3%
86 | O=C(O)CCN1C(=O)c2ccc(Oc3ccc([N+](=O)[O-])cc3)cc2C1=O [CBK263357] | 96.2%
87 | CN(C)CCC(c1ccccc1)n1cncc1-c1cnn(C)c1 (centres unmarked) [CBK281742] | 93.6%
88 | CCN1CCN(CCOc2c(OC)cccc2OC)CC1 [CBK267375G] | 96.9%
89 | CC(=O)N1CCC[C@H]1Cn1nc(-c2cccs2)ccc1=O [CBK284249] | 78.1%
